Reference: patent US11466010B2, “Toll-like receptor 8 (TLR8) specific antagonists and methods of making and uses thereof” (The Regents of the University of Colorado, a body corporate, priority 2017, dated 2022)
Entries after “also recorded” stand apart in the source; their conditions may differ.

Assays:
human TLR8 = target: T1, human TLR8 (Homo sapiens, UniProt Q9NR97); assay: SEAP reporter assay in HEK-Blue TLR8 cells, R848-induced TLR8 signaling; assay type: cell-based
T1 construct: expressed in transfected cells; host or cells: HEK-Blue Null1 cells, lentiviral infection
T1 sequence (Q9NR97 27-1041): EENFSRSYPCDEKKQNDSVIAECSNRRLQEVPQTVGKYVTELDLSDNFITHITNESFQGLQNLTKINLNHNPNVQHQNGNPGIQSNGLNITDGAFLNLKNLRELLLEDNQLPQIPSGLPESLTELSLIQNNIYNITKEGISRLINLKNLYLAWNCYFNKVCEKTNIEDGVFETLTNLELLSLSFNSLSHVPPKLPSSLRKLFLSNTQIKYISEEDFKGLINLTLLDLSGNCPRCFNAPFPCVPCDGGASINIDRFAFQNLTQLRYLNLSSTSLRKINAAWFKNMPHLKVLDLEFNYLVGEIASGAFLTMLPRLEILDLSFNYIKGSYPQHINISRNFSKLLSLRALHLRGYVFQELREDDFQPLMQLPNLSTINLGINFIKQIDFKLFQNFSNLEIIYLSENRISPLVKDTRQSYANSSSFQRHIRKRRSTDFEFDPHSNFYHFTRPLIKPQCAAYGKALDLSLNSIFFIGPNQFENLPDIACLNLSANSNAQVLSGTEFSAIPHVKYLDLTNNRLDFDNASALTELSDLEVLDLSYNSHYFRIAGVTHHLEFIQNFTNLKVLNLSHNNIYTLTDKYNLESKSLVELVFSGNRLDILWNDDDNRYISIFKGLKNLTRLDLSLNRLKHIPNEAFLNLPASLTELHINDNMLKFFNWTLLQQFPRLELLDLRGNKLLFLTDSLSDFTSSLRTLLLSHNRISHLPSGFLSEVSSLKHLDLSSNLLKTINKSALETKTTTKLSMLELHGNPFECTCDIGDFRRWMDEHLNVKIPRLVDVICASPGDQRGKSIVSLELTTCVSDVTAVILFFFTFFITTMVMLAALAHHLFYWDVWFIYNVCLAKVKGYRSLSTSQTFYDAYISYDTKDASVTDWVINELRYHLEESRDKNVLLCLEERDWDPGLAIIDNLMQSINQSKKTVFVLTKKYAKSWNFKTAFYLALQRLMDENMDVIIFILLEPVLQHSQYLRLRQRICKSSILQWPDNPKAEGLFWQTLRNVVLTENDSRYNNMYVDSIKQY
Method: SEAP reporter assay: HEK-Blue TLR8 cells were seeded in tissue culture treated 96-well plates with a density of 7.5×10^4 cells/well in DMEM media supplemented with 10% FBS (phosphatases deactivated with heat). […] Plates are then incubated in humidified incubators containing 5% CO2 at 37° C. for 24 h, after which, 30 μL of culture media was transfer to a new plate and 100 μL of Quanti-Blue (Invivogen) was added, the plate was then incubated at 37° C. till color change (30 min-1 h). Readout of absorbance at 620 nm was quantified using Beckman-Coulter DTX 880 Multimode Detector. […] SEAP assays for each sample were conducted with three biological replicates, each in triplicate.
To establish a robust high throughput assay for TLR8 inhibitors, the inventors first engineered a cell line stably overexpressing the human TLR8 whose activation can be reported by the Secreted Embryonic Alkaline Phosphatase (SEAP) assay. TLR8-overexpresing HEK-Blue cells were prepared by lentiviral infection of HEK-Blue Null1 cells that have null or low basal expression of endogenous TLR genes. […] The TLR8-mediated NF-κB activation can be assessed by measuring the SEAP activity.

[1] = system: TNF-α production in PBMCs from an AOSD patient; assay: TNF-α level in PBMCs harvested from an AOSD patient; assay type: cell-based, human; details: negative control, 40 μM
Method: But there is a lack of appropriate rodent models because TLR8 is not functional in either mice or rats. Therefore, the TLR8 inhibitors of this disclosure were tested in human specimens harvested from patients with osteoarthritis (OA), rheumatoid arthritis (RA), and adult onset-Still's disease (AOSD). It is well established that TNF-α and IL-1β are key cytokines in the process of chronic joint inflammation in cartilage. Therefore, synovial cells were isolated from synovial tissue of patients who underwent joint replacement surgery due to severe OA. Previous studies have indicated these pathological tissues express both TLR7 and TLR8 with elevated production of various cytokines, contributing to extensive articular destruction and functional decline.

[2] = system: TNF-α production in PBMCs from RA patients; assay: TNF-α level in PBMCs harvested from RA patients; assay type: cell-based, human; details: negative control, up to 80 μM
[3] = system: TLR8-mediated TNF-α and IL-8 mRNA; assay: RT-PCR of TNF-α and IL-8 mRNA in R848 treated HEK-Blue TLR8 cells; assay type: cell-based, human; details: negative control, 10 μM
Description: R848-induced TLR8 activation results in increased production of the proinflammatory cytokines, such as TNF-α, IL-6 and IL-8.

[4] = system: TLR8-mediated TNF-α production in PBMC cells; assay: R848-induced TNF-α secretion in PBMCs; assay type: cell-based, human; details: 1 μg/mL R848; dose-dependent; 4a at 50 μM
Description: Peripheral blood mononuclear cells (PBMCs) include lymphocytes (T cells, B cells, and NK cells), monocytes, and dendritic cells expressing various TLRs. TLR7 and TLR8 are both expressed on B cells and monocytes, while DC plasmacytoids (DCps) express only TLR7 and immature DCs (DC11c^+) express only TLR8.

[5] = system: TLR8-mediated TNF-α production in THP-1 cells; assay: R848-induced TNF-α production in differentiated THP-1 monocytes; assay type: cell-based, human; details: 10 μM
[6] = 1(2H)-phthalazinone and quinoline derivatives in HEK-Blue hTLR8 cells
[7] = same column as E3, cell prints (nM), HEK-Blue hTLR8 cells

## O=C(O)c1cnn2c(-c3cccc(C(F)(F)F)c3)ccnc12 [Compound 4a]
Human TLR8; up to 20 μM
  inhibitory activity against TLR8 signaling: did not show any inhibitory activity
[1]
  inhibitory activity on TNF-α level in PBMCs from an AOSD patient: did not show notable inhibitory activity
[2]
  inhibition of TNF-α level in PBMCs from RA patients: did not show significant inhibition; also recorded: did not show notable inhibitory activity
[3]
  inhibition of R848-induced TNF-α and IL-8 mRNA levels: negligible inhibition
[4]
  R848-induced TNF-α secretion of PBMCs: not
[5]
  inhibition of R848-induced TNF-α production: failed to show significant inhibition

## CCOc1ccc(-c2nn(CC)c(=O)c3ccccc23)cc1C [Compound 32, 4-(4-Ethoxyl-3-methylphenyl)-2-ethyl-1(2H)-phthalazinone]
Human TLR8; [6]
  IC50: > 20000 nM

## O=c1c2ccccc2c(-c2ccccc2)nn1-c1ccccc1 [Compound 33, 2,4-Diphenyl-1(2H)-phthalazinone]
Human TLR8; [6]
  IC50: > 20000 nM

## Cc1cc(-c2n[nH]c(=O)c3cccc(C)c23)ccc1O [Compound 34, 4-(4-Hydroxy-3-methylphenyl)-5-methyl-1(2H)-phthalazinone]
Human TLR8; [6]
  IC50: > 20000 nM

## Cc1cc(-c2n[nH]c(=O)c3cccnc23)cc(C)c1O [Compound 35]
Human TLR8; [6]
  IC50: 13000 ± 2140 nM

## Cc1cc(-c2ccnc3ccccc23)cc(C)c1O [Compound 36, 4-(3,5-Dimethyl-4-Hydroxyphenyl)quinoline]
Human TLR8; [7]
  IC50: 25.5 ± 10.7 nM

## Cc1cc(-c2ccnc3ccccc23)ccc1O [Compound 37, 4-(3-Methyl-4-Hydroxyphenyl)quinoline]
Human TLR8; [7]
  IC50: 38.6 ± 5.75 nM

## Cc1cc(-c2ncnc3ccccc23)ccc1O [Compound 38, 4-(3-Methyl-4-Hydroxyphenyl)quinazoline]
Human TLR8; [6]
  IC50: 350 ± 120 nM

## Cc1cc(-c2cncc3ccccc23)ccc1O [Compound 39, 4-Isoquinolin-4-yl-2-methylphenol]
Human TLR8; [6]
  IC50: 160 ± 20 nM

## Cc1cc(-c2nncc3ccccc23)cc(C)c1O [Compound 40, 1-(3,5-Dimethyl-4-Hydroxyphenyl)-phthalazine]
Human TLR8; [6]
  IC50: 11400 ± 360 nM

## Cc1cc(-c2nncc3ccccc23)ccc1O [Compound 41, 1-(3-Methyl-4-Hydroxyphenyl)-phthalazine]
Human TLR8; [6]
  IC50: 6750 ± 1300 nM

## Cc1cc(-c2cccc3ccccc23)cc(C)c1O [Compound 42, 1-(4-Hydroxy-3,5-dimethylphenyl)naphthalene]
Human TLR8; [6]
  IC50: 1220 ± 100 nM

## Cc1cc(-c2cccc3ccccc23)ccc1O [Compound 43, 1-(4-Hydroxy-3-methylphenyl)naphthalene]
Human TLR8; [6]
  IC50: > 20000 nM

## Cc1cc(-c2cnnc3ccccc23)ccc1O [Compound 45, 4-(4-Hydroxy-3-methylphenyl)-cinnolin]
Human TLR8; [6]
  IC50: 340 ± 20 nM

## Cc1cc(-c2cn(C(=O)OC(C)(C)C)c3ccccc23)ccc1O [Compound 46, N-tert-butoxycarbonyl-3-(4-Hydroxy-3-methylphenyl)-indole]
Human TLR8; [6]
  IC50: > 20000 nM

## Cc1cc(-c2c[nH]c3ccccc23)ccc1O [Compound 47, 3-(4-Hydroxy-3-methylphenyl)-indole]
Human TLR8; [6]
  IC50: 2800 ± 690 nM

## Cc1cc(-c2n[nH]c3ccccc23)ccc1O [Compound 48, 3-(4-Hydroxy-3-methylphenyl)-1H-indazole]
Human TLR8; [6]
  IC50: > 20000 nM

## Cc1cc(-c2ccnc3[nH]ccc23)ccc1O [Compound 49, 4-(4-Hydroxyl-3-methylphenyl)-7-azaindole]
Human TLR8; [6]
  IC50: 90 ± 30 nM

## Cc1cc(-c2ccnc3cccnc23)ccc1O [Compound 50, 4-(4-Hydroxyl-3-methylphenyl)-1,5-naphthyridine]
Human TLR8; [6]
  IC50: 300 ± 70 nM
